Laboratory results from patent US20110237508A1, “Peptide Formulations and Uses Thereof” (RIJKSUNIVERSITEIT GRONINGEN, priority 2008, published 2011).

Key:
[1] = oral tablets, simulated tropical conditions; cited from earlier work
[2] = Long-term stability study at 40° C., oxytocin recovery by RP-HPLC; assay type: physicochemical; settings: 10 mM citrate buffer and 50 mM Ca2+, pH 4.5, 6 months at 40° C.
Procedure: (§1) A long-term stability study was performed to assess the thermal stability of pH-buffered oxytocin formulations comprising divalent metal ions over prolonged periods. Citrate buffer (CB) was added in concentrations of 5, 10 or 50 mM to formulations comprising 0.1 mg/ml oxytocin and 0, 10 or 50 mM Ca^2+ (CaCl2). […] Samples of each formulation were stored for 1, 2, 3 or 6 months at 40° C. Thereafter, all samples were stored under cooled conditions (2-8° C.) before analysis by RP-HPLC and HP-SEC. Effects on stability were determined by measuring the recovery of oxytocin and the percentage of oxytocin-monomers.

[3] = Oxytocin monomer recovery by HP-SEC after 4 weeks storage at 4 or 55° C.; assay type: physicochemical; settings: pH 4.5, 4 weeks
Procedure: (§2) As shown herein below, the stabilizing effect of the combination of a buffer and at least one source of divalent metal ions at a concentration of at least 2 mM in an aqueous oxytocin formulation was determined by measuring the recovery of oxytocin (remaining oxytocin as % of initial amount), the amount of oxytocin-monomers (% of total remaining oxytocin) and/or the level of aggregation (aggregated oxytocin as % of total remaining oxytocin) upon prolonged storage at elevated (e.g. 55° C.) temperatures. These parameters can be assessed by using any method for analysis deemed suitable by a person skilled in the art. Examples of suitable methods for analysis include, but are not limited to, reversed-phase high-performance liquid chromatography (RP-HPLC) and high-performance size exclusion chromatography (HP-SEC). Thus, suitable concentrations of divalent metal ions to achieve the stabilizing effect at elevated temperatures can be determined by those skilled in the art. They may vary, e.g. depending on the composition of the formulation or its intended application. In one embodiment, a formulation comprises oxytocin or vasopressin and at least 2 mM, preferably at least 5, more preferably at least 10 mM divalent metal ions and a buffer. In another embodiment, a pH-buffered formulation comprises divalent metal ions in a concentration of up to 150 mM, preferably up to 100 mM, more preferably up to 50 mM. For example, a formulation comprises divalent metal ions in a concentration between 5 and 150 mM, preferably between 10 and 100 mM, more preferably between 10 and 50 mM. In one embodiment, between 2 and 150 mM divalent metal ions, preferably 5-100 mM, such as 10, 20, 25, 30, 40 or 50 mM, and a buffer are used to stabilize an aqueous peptide formulation. In another embodiment, a divalent metal ion concentration in the range from 20 to 100 mM is used, like 30-100 mM, 40-80 mM or 50-70 mM. Other suitable ranges include between 2 and 50 mM, between 30 and 60 mM and between 40 and 70 mM divalent metal ions.
Divalent metal ions (Ca^2+, Mg^2+ and Zn^2+) were added as metal chloride salts (MC12) to a non-buffered formulation comprising oxytocin and pure water (W). The divalent metal ions were used at concentrations of 0, 2, 5, 10 and 50 mM. […] Effects on stability were determined by measuring the recovery of oxytocin and the percentage of oxytocin-monomers.
Samples of each formulation were stored for 4 weeks at 4° C. […] Effects on stability were determined by measuring the recovery of oxytocin and the percentage of oxytocin-monomers.
The thermal stability of oxytocin in the presence of combinations of a buffer and monovalent metal ions was investigated. […] Effects on stability were determined by measuring the recovery of oxytocin and the percentage of oxytocin-monomers. […]

[4] = cited from earlier work
[5] = Oxytocin recovery by RP-HPLC after 4 weeks storage at 4 or 55° C.; assay type: physicochemical; settings: pH 4.5, 4 weeks
Procedure: as §2, with “ions. […]” for “ions.”
Samples of each formulation were stored for 4 weeks at 4° C. (control) or 55° C. (test). Thereafter, all samples were stored under cooled conditions (2-8° C.) before analysis by RP-HPLC and HP-SEC. Effects on stability were determined by measuring the recovery of oxytocin and the percentage of oxytocin-monomers.
The thermal stability of oxytocin in the presence of combinations of a buffer and monovalent metal ions was investigated. Citrate buffer (CB), acetate buffer (AC) or aspartate buffer (AP) was used at a concentration of 10 mM. Monovalent metal ions Na^+ and K^+ were added in the form of their chloride salt (NaCl and KCl) and used in final concentrations of 10 and 20 mM. […] Samples of each formulation were stored for 4 weeks at 4° C. (control) or 55° C. (test). Thereafter, all samples were stored under cooled conditions (2-8° C.) before analysis by RP-HPLC and HP-SEC. Effects on stability were determined by measuring the recovery of oxytocin and the percentage of oxytocin-monomers.
(§3) Citrate buffer (CB) was used at concentrations of 5, 10 or 50 mM. Divalent metal ions (Ca^2+, Mg^2+ and Zn^2+) were added in the form of their chloride salt (CaCl2, MgCl2 and ZnCl2) and used in final concentrations of 0, 2, 5, 10 or 50 mM. […] Samples of each formulation were stored for 4 weeks at 4° C. (control) or 55° C. (test). Thereafter, all samples were stored under cooled conditions (2-8° C.) before analysis by RP-HPLC and HP-SEC. Effects on stability were determined by measuring the recovery of oxytocin and the percentage of oxytocin-monomers. The results are presented in FIGS. 4A and 4B (citrate buffer with Ca^2+), 5A and 5B (citrate buffer with Mg^2+) and 6A and 6B (citrate buffer with Zn^2+).
Divalent metal ions (Ca^2+, Mg^2+ and Zn^2+) were added in the form of their chloride salt (CaCl2, MgCl2 and ZnCl2) and used in final concentrations of 0, 2, 5, 10 or 50 mM. […] Samples of each formulation were stored for 4 weeks at 4° C. […]

[6] = Long-term stability study at 40° C., oxytocin monomers by HP-SEC; assay type: physicochemical; settings: 10 mM citrate buffer and 50 mM Ca2+, pH 4.5, 6 months at 40° C.
Procedure: as §1

[7] = Precipitation of oxytocin in citrate buffer with Ca2+; assay type: physicochemical; settings: 100 mM Ca2+
Procedure: as §3, with “of” for “of 5, 10 or 50 mM. Divalent metal ions (Ca^2+, Mg^2+ and Zn^2+) were added in the form of their chloride salt (CaCl2, MgCl2 and ZnCl2) and used in final concentrations of 0, 2,”

CC[C@H](C)[C@@H]1NC(=O)[C@H](Cc2ccc(O)cc2)NC(=O)CCSSC[C@@H](C(=O)N2CCC[C@H]2C(=O)N[C@@H](CC(C)C)C(=O)NCC(N)=O)NC(=O)[C@H](CC(N)=O)NC(=O)[C@H](CCC(N)=O)NC1=O [desamino-oxytocin]
stability of tablets [1]: not stable

C[C@@H](CO)NC(=O)[C@@H]1C=C2c3cccc4[nH]cc(c34)C[C@H]2N(C)C1 [ergometrine]
stability of tablets [1]: not stable

CC[C@H](C)[C@@H]1NC(=O)[C@H](Cc2ccc(O)cc2)NC(=O)[C@@H](N)CSSC[C@@H](C(=O)N2CCC[C@H]2C(=O)N[C@@H](CC(C)C)C(=O)NCC(N)=O)NC(=O)[C@H](CC(N)=O)NC(=O)[C@H](CCC(N)=O)NC1=O [oxytocin]
original amount of oxytocin preserved [2]: around 70%
remaining oxytocin in monomeric form ([3]; 10 mM acetate buffer & 10 mM Na+, 55° C.): around 30%
percentage of oxytocin monomers ([3]; citrate buffer with Ca2+, 55° C.): up to 80%
percentage of remaining oxytocin monomers ([3]; citrate buffer with Zn2+, 55° C.): up to 90%
remaining oxytocin-monomers ([3]; non-buffered pure water with divalent metal ions, 4 or 55° C.): loss of monomers was only prevented at 4 °C in the presence of Ca^2+ or Zn^2+
effect on oxytocin stability ([4]; dissolved in commercially obtainable lactated Ringer's solution): no effect on oxytocin stability at all
stability of oxytocin ([4]; in Ringer's, room temperature, 0.08 IU/ml): already compromised after 30 days
stability of tablets [1]: not stable
original quantity of oxytocin recovered ([5]; 10 mM acetate buffer & 10 mM Na+): ≤ 35%
remaining percentage of oxytocin ([5]; 10 mM acetate buffer with 50 mM Ca2+, 50 mM Mg2+ or 50 mM Zn2+): Small increases
stabilizing effect ([5]; 10 mM aspartate buffer with Ca2+ or Mg2+): only smaller effects
stabilizing effect ([5]; 10 mM aspartate buffer with Zn2+ (2-50 mM)): strong concentration-dependent stabilizing effect
oxytocin remained ([5]; 10 mM aspartate buffer with Zn2+): Up to 75%
thermal stability of oxytocin ([5]; 10 mM citrate, acetate or aspartate buffer with 10 or 20 mM Na+ or K+): minor effects
oxytocin stability ([5]; 50 mM citrate buffer with Ca2+): only increased together with 50 mM Ca^2+
oxytocin stability ([5]; 50 mM citrate buffer with Mg2+): only increased at 50 mM Mg^2+
oxytocin stability ([5]; 50 mM citrate buffer with Zn2+): only increased at 50 mM Zn^2+
oxytocin stability ([5]; 5 or 10 mM citrate buffer and 50 mM Ca2+): Largest increases in stability
oxytocin stability ([5]; 5 or 10 mM citrate buffer and 50 mM Mg2+): largest increases in stability
oxytocin stability ([5]; citrate buffer with 2 or 5 mM Zn2+): large increases in stability
oxytocin stability ([5]; citrate, acetate or aspartate buffer, no divalent metal ions): small increase
portion remained in monomeric form [6]: more than 80%
precipitation [7]: precipitates were observed
